Assay results reported in US7897568B2, “Compositions for treatment of cancer” (priority 2006, dated 2011).
Where a SMILES comes first, the peptide text is derived from it. Where no end group is shown, it is not given here.

Legend:
GST-SNCG [1] = biological target: T1, GST-SNCG (Homo sapiens, UniProt O76070); test: Surface plasmon resonance, immobilized ANK peptide with GST-SNCG analyte; format: binding; settings: global fit, two-phase reaction (conformation change) model, 25° C.
T1 construct: The SNCG coding region was amplified from the human cDNA clone; made in house; host or cells: Escherichia coli BL21 (DE3)
Procedure: Kinetics of the SNCG-ANK interaction were determined. […] Sensograms were deconvoluted globally, using a simultaneous fit for both association (ka, M^−1s^−1) and dissociation (kd, s^−1).
The binding interaction between the ANK peptide and GST-SNCG was examined in real time using a BIACORE 3000 biosensor system (Biacore Inc., NJ). Because of the relatively large amount required in this experiment, GST-SNCG, which expresses at least 2 times better than SNCG, was used. […] The changes in the refractive index at the sensor chip surface with respect to time are scaled in resonance units (RU). For proteins, every 1000 RU corresponds to a surface mass change of ˜1 ng/mm^2. All experiments were performed at 25° C. using research grade carboxymethylated dextran matrix (CM5) sensor chips (Biacore Inc.). […] Prior to all analyses the GST-SNCG and ANK peptide preparations were dialyzed against the running buffer to minimize bulk effects. […]
In all cases the analyte binding measurements were performed using running buffer 2 (running buffer 1 plus 0.1% P20 surfactant). […] Data was analyzed using BIAevaluation 3.1 software (Biacore Inc.). The data was analyzed globally, using a simultaneous fit for both association (ka, M^−1s^−1) and dissociation (kd, s^−1). The KD (M) value was calculated as kd/ka.

GST-SNCG [2] = biological target: T1, GST-SNCG; test: Isothermal titration calorimetry of ANK peptide into GST-SNCG; settings: ITC, first binding site
Procedure: The heat of dilution was measured by titrating ANK peptide in buffer alone. This was generally small and subtracted from each binding titration curve.
Titration calorimetry measurements were performed with a VP-ITC calorimeter (Microcal, Northampton, Mass.). The protein solution for ITC was dialyzed extensively overnight against 10 mM phosphate buffer, pH 7.0. The peptide solution was prepared by diluting with the buffer used for the protein dialysis. Injections (6 μl×50) of peptide (400 μM) were done by means of a rotating stirrer-syringe to the reaction cell, containing 1.43 ml of the 50 μM protein solution. The heat of dilution was determined to be negligible in separate titrations of the ligand into the buffer solution. Calorimetric data analysis was carried out with ORIGIN 5.0 software (MicroCal). Binding parameters such as the number of binding sites, the binding constant, and the binding enthalpy of bound ligand were determined by fitting the experimental binding isotherms.

SNCG-BubR1 interaction = biological target: T2, SNCG-BubR1 interaction (Homo sapiens, UniProt O76070); test: Co-immunoprecipitation of SNCG and myc-BubR1 with or without EGFP-ANK in COS7 cells; format: cell-based; settings: COS7 cells expressing BubR1, SNCG and EGFP-ANK
T2 construct: expressed in transfected cells; host or cells: COS7

MCF7-SNCG cells = test: Mitotic index and apoptosis by DAPI staining after paclitaxel; format: cell-based; settings: SNCG cells expressing EGFP-ANK versus pEGFP, paclitaxel 18 hours
Procedure: (§1) FIG. 7A through D show expression of EGFP-ANK disrupting the SNCG-mediated inhibition of mitotic checkpoint function as measured by microscopy and flow cytometry. The bar graphs show the expression of EGFP-ANK disrupting the SNCG-mediated inhibition of mitotic checkpoint function, using (FIG. 7A) DAPI and (FIG. 7B) anti-phospho-H^3 staining. For graphs of FIGS. 7A and 7B, the cells treated with 0.5 μM paclitaxel for 18 hours or untreated control cells were fixed with 4% paraformaldehyde for 20 minutes at room temperature. In both cases, the cells were then stained with 1 μg/ml of DAPI or 2 μg/ml anti-phospho-H3 primary and Texas Red goat anti-rabbit secondary antibodies (Invitrogen). Green fluorescent cells were identified for positive transfected cells. For each sample, 200-300 cells randomly chosen from 5 different views under a Nikon fluorescent microscope were scored for interphase, mitotic, or apoptotic based upon nuclei morphology. The data shown were derived from three separate transfections (p<0.01). […]
(§2) Two days after transfection, cells were exposed to paclitaxel for 18 hours and numbers of mitotic arrested and apoptotic cells were counted after DAPI staining. […] These cells were also probed with rabbit polyclonal anti-phospho-H^3 and the mitotic index was calculated according to the proportion of the number of H^3 stained EGFP positive cells to total EGFP positive cells (FIG. 7B). […]

MCF7-Neo cells = test: as above; format: cell-based; settings: neo cells expressing EGFP-ANK versus pEGFP, paclitaxel 18 hours
Procedure: as §1, §2

MCF7-SNCG and T47D cells = test: Mitotic index by anti-phospho-H3 immunostaining (microscopy) after paclitaxel; format: cell-based; settings: over-expressing EGFP-ANK in MCF7-SNCG and T47D cells
Procedure: as §1, §2

T1 sequence (O76070 whole entry): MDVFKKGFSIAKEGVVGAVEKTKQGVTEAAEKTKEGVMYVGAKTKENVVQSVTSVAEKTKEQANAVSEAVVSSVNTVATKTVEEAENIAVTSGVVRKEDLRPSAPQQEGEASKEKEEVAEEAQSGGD
T2 sequence (O76070 whole entry): as above

myc-BubR1 signal in anti-SNCG IP complex (SNCG-BubR1 interaction) | Compound | kd1 (GST-SNCG [1]) [s⁻¹] | kd2 (GST-SNCG [1]) [s⁻¹] | ΔH (GST-SNCG [2]) [kcal/mol] | increase in the number of mitotic arrested cells (MCF7-SNCG cells) [fold] | mitotic index (MCF7-Neo cells) | percentage of apoptotic cells (MCF7-Neo cells) | sensitivity to paclitaxel by anti-phospho-H3 mitotic index (MCF7-SNCG and T47D cells)
 | CC[C@H](C)[C@H](NC(=O)[C@H](CS)NC(=O)CNC(=O)[C@H](CC(C)C)NC(=O)[C@H](Cc1c[nH]cn1)NC(=O)CNC(=O)[C@H](Cc1c[nH]cn1)NC(=O)[C@H](CCC(N)=O)NC(=O)[C@H](CO)NC(=O)[C@H](C)NC(=O)[C@@H](NC(=O)[C@H](Cc1c[nH]cn1)NC(=O)[C@H](CC(C)C)NC(=O)[C@H](C)NC(=O)[C@H](CO)NC(=O)[C@H](CC(N)=O)NC(=O)CNC(=O)[C@H](CCCCN)NC(C)=O)C(C)C)C(=O)N[C@@H](CCC(N)=O)C(=O)N[C@H](C(=O)N[C@@H](CC(C)C)C(=O)N[C@H](C(=O)N[C@@H](CCCNC(=N)N)C(=O)N[C@@H](Cc1ccc(O)cc1)C(=O)NCC(=O)N[C@@H](C)C(=O)N[C@@H](CC(N)=O)C(=O)N[C@H](C(=O)N[C@H](C(=O)N[C@@H](CCSC)C(=O)N[C@@H](CCC(N)=O)C(=O)N[C@@H](CC(N)=O)C(=O)N[C@@H](Cc1c[nH]cn1)C(=O)NCC(N)=O)[C@@H](C)O)C(C)C)C(C)C)[C@@H](C)O [ANK peptide] (Ac-KGNSALHVASQHGHLGCIQTLVRYGANVTMQNHG-NH2) | 0.014 | 0.000802 | 2.174 ± 0.2 |  |  |  | 
not detected | EGFP-ANK: ANK peptide expressed as a fusion protein with its amino-terminal linked to EGFP protein, approximately 37 kDa ({EGFP}-KGNSALHVASQHGHLGCIQTLVRYGANVTMQNHG) |  |  |  | ~2 | did not significantly alter | did not significantly alter | increases in sensitivity to paclitaxel
